Measurements reported in patent publication US20210290644A1, “COMPOUNDS AND METHODS FOR TREATING FUNGAL INFECTIONS” (Amplyx Pharmaceuticals, Inc., priority 2018, published 2021).
Values joined by “and” are separate entries in the source; they are usually repeats but may differ in a detail not shown here. Equal values may be shown once.

Assay: Study #2 Phase 1: pharmacokinetics after single IV and single/multiple oral doses of Compound 1, absolute oral bioavailability;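 also: phase 1 study design: one IV dose, then escalating single oral doses, fed versus fasted single oral dosing, and once-daily oral dosing over 14 days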
[1] = oral Compound 1 QD × 14 days, 3 cohorts
[2] = single oral doses of Compound 1 100 mg to 500 mg, fasted

Q: Which AUC(0-inf) (human, plasma, iv, 200 mg) does the source give for `Nc1ncccc1-c1cc(Cc2ccc(COc3ccccn3)cc2)no1` [Compound 1A] here?
A: 87.5 µg·h/mL

Q: What about the Vd (human, plasma, iv, 200 mg) of the same compound?
A: 124 L and 1.6 L/kg

Q: And the clearance (human, plasma, iv, 200 mg)?
A: 29.1 mL/min and 0.377 mL/min/kg

Q: What about the AUC(0-t) (human, plasma, iv, 200 mg, AUC(0-24), 200 mg/3 hr IV Compound 1, fasted, geometric mean) of the same compound?
A: 24.4 µg·h/mL

Q: What about the AUC(0-t) (human, plasma, iv, 200 mg, AUC(0-t), 200 mg/3 hr IV Compound 1, fasted, geometric mean) of the same compound?
A: 86.3 µg·h/mL

Q: What about the Cmax (human, plasma, iv, 200 mg, 200 mg/3 hr IV Compound 1, fasted, geometric mean) of the same compound?
A: 2.64 µg/mL

Q: And the Tmax (human, plasma, iv, 200 mg, Tmax, 200 mg/3 hr IV Compound 1, fasted, median)?
A: 3 h

Q: And the half-life (human, plasma, iv, 200 mg, geometric mean t1/2, IV treatment, 200 mg Compound 1 over 3 hrs)?
A: 49.1 h

Q: What about the half-life (human, plasma, iv, 200 mg, t½, 200 mg/3 hr IV Compound 1, fasted, geometric mean) of the same compound?
A: 49.1 h

Q: And the bioavailability (human, plasma, oral)?
A: 90.6 to 101%

Q: And the AUC(0-t) (human, plasma, oral, 500 mg, AUC(0-24), Day 1, Cohort 2, 500 mg Tablets QD × 14 Days, fed, geometric mean)?
A: 50.7 µg·h/mL

Q: What about the AUC(0-t) (human, plasma, oral, 500 mg, AUC(0-24), Day 7, Cohort 2, 500 mg Tablets QD × 14 Days, fed, geometric mean) of the same compound?
A: 154 µg·h/mL

Q: What about the AUC(0-t) (human, plasma, oral, 500 mg, AUC(0-24), Day 14, Cohort 2, 500 mg Tablets QD × 14 Days, fed, geometric mean) of the same compound?
A: 191 µg·h/mL

Q: What about the CL/F (human, plasma, oral, 500 mg, CL, Day 14, Cohort 2, 500 mg Tablets QD × 14 Days, fed, geometric mean) of the same compound?
A: 0.0277 L/h/kg

Q: And the Cmax (human, plasma, oral, 500 mg, Day 1, Cohort 2, 500 mg Tablets QD × 14 Days, fed, geometric mean)?
A: 6.18 µg/mL

Q: What about the Cmax (human, plasma, oral, 500 mg, Day 7, Cohort 2, 500 mg Tablets QD × 14 Days, fed, geometric mean) of the same compound?
A: 10.9 µg/mL

Q: What about the Cmax (human, plasma, oral, 500 mg, Day 14, Cohort 2, 500 mg Tablets QD × 14 Days, fed, geometric mean) of the same compound?
A: 12 µg/mL

Q: What about the Tmax (human, plasma, oral, 500 mg, Tmax, Day 1, Cohort 2, 500 mg Tablets QD × 14 Days, fed, median) of the same compound?
A: 4 h

Q: What about the Tmax (human, plasma, oral, 500 mg, Tmax, Day 7, Cohort 2, 500 mg Tablets QD × 14 Days, fed, median) of the same compound?
A: 3.76 h

Q: And the Tmax (human, plasma, oral, 500 mg, Tmax, Day 14, Cohort 2, 500 mg Tablets QD × 14 Days, fed, median)?
A: 3.75 h

Q: What about the half-life (human, plasma, oral, 500 mg, T½, Day 14, Cohort 2, 500 mg Tablets QD × 14 Days, fed, geometric mean) of the same compound?
A: 73.4 h

Q: And the AUC(0-t) (human, plasma, oral, 1000 mg, AUC(0-24), Day 1, Cohort 3, 1000 mg Tablets QD × 14 Days, fed, geometric mean)?
A: 119 µg·h/mL

Q: And the AUC(0-t) (human, plasma, oral, 1000 mg, AUC(0-24), Day 7, Cohort 3, 1000 mg Tablets QD × 14 Days, fed, geometric mean)?
A: 316 µg·h/mL

Q: What about the AUC(0-t) (human, plasma, oral, 1000 mg, AUC(0-24), Day 14, Cohort 3, 1000 mg Tablets QD × 14 Days, fed, geometric mean) of the same compound?
A: 326 µg·h/mL

Q: And the CL/F (human, plasma, oral, 1000 mg, CL, Day 14, Cohort 3, 1000 mg Tablets QD × 14 Days, fed, geometric mean)?
A: 0.0349 L/h/kg

Q: And the Cmax (human, plasma, oral, 1000 mg, Day 1, Cohort 3, 1000 mg Tablets QD × 14 Days, fed, geometric mean)?
A: 10.6 µg/mL

Q: What about the Cmax (human, plasma, oral, 1000 mg, Day 7, Cohort 3, 1000 mg Tablets QD × 14 Days, fed, geometric mean) of the same compound?
A: 21.3 µg/mL

Q: And the Cmax (human, plasma, oral, 1000 mg, Day 14, Cohort 3, 1000 mg Tablets QD × 14 Days, fed, geometric mean)?
A: 21.3 µg/mL

Q: And the Tmax (human, plasma, oral, 1000 mg, Tmax, Day 1, Cohort 3, 1000 mg Tablets QD × 14 Days, fed, median)?
A: 4.5 h

Q: What about the Tmax (human, plasma, oral, 1000 mg, Tmax, Day 7, Cohort 3, 1000 mg Tablets QD × 14 Days, fed, median) of the same compound?
A: 4 h

Q: And the Tmax (human, plasma, oral, 1000 mg, Tmax, Day 14, Cohort 3, 1000 mg Tablets QD × 14 Days, fed, median)?
A: 3.77 h

Q: What about the half-life (human, plasma, oral, 1000 mg, T½, Day 14, Cohort 3, 1000 mg Tablets QD × 14 Days, fed, geometric mean) of the same compound?
A: 52.6 h

Q: And the bioavailability (human, plasma, po, 100 mg)?
A: 90.6%

Q: What about the Tmax (human, plasma, po, 100 mg, Tmax, 100 mg Oral Compound 1, fasted, median) of the same compound?
A: 2 h

Q: What about the AUC(0-inf) (human, plasma, po, 300 mg) of the same compound?
A: 122 µg·h/mL

Q: And the Vd/F (human, plasma, po, 300 mg)?
A: 142 L and 1.84 L/kg

Q: And the bioavailability (human, plasma, po, 300 mg)?
A: 93.1%

Q: And the AUC(0-t) (human, plasma, po, 300 mg, AUC(0-24), 300 mg Oral Compound 1, fasted, geometric mean)?
A: 35.6 µg·h/mL

Q: And the AUC(0-t) (human, plasma, po, 300 mg, AUC(0-t), 300 mg Oral Compound 1, fasted, geometric mean)?
A: 118 µg·h/mL

Q: What about the CL/F (human, plasma, po, 300 mg, CL/F, 300 mg Oral Compound 1, fasted, geometric mean) of the same compound?
A: 0.0243 L/h/kg

Q: What about the Cmax (human, plasma, po, 300 mg, 300 mg Oral Compound 1, fasted, geometric mean) of the same compound?
A: 3.75 µg/mL

Q: And the Tmax (human, plasma, po, 300 mg, Tmax, 300 mg Oral Compound 1, fasted, median)?
A: 2.5 h

Q: What about the half-life (human, plasma, po, 300 mg, t½, 300 mg Oral Compound 1, fasted, geometric mean) of the same compound?
A: 52.5 h

Q: What about the bioavailability (human, plasma, po, 400 mg) of the same compound?
A: 101%

Q: What about the Tmax (human, plasma, po, 400 mg, Tmax, 400 mg Oral Compound 1, fasted, median) of the same compound?
A: 2.5 h

Q: What about the AUC(0-inf) (human, plasma, po, 500 mg) of the same compound?
A: 205 µg·h/mL

Q: And the Vd/F (human, plasma, po, 500 mg)?
A: 121 L and 1.62 L/kg

Q: And the bioavailability (human, plasma, po, 500 mg)?
A: 93.5%

Q: What about the AUC(0-t) (human, plasma, po, 500 mg, AUC(0-24), 500 mg Oral Compound 1, fasted, geometric mean) of the same compound?
A: 59 µg·h/mL

Q: What about the AUC(0-t) (human, plasma, po, 500 mg, AUC(0-24), Day 1, Cohort 4, 500 mg Oral Solution QD × 14 Days, fed, geometric mean) of the same compound?
A: 56.7 µg·h/mL

Q: What about the AUC(0-t) (human, plasma, po, 500 mg, AUC(0-24), Day 7, Cohort 4, 500 mg Oral Solution QD × 14 Days, fed, geometric mean) of the same compound?
A: 140 µg·h/mL

Q: And the AUC(0-t) (human, plasma, po, 500 mg, AUC(0-24), Day 14, Cohort 4, 500 mg Oral Solution QD × 14 Days, fed, geometric mean)?
A: 153 µg·h/mL

Q: What about the AUC(0-t) (human, plasma, po, 500 mg, AUC(0-t), 500 mg Oral Compound 1, fasted, geometric mean) of the same compound?
A: 197 µg·h/mL

Q: And the CL/F (human, plasma, po, 500 mg, CL, Day 14, Cohort 4, 500 mg Oral Solution QD × 14 Days, fed, geometric mean)?
A: 0.0333 L/h/kg

Q: And the CL/F (human, plasma, po, 500 mg, CL/F, 500 mg Oral Compound 1, fasted, geometric mean)?
A: 0.0251 L/h/kg

Q: What about the Cmax (human, plasma, po, 500 mg, 500 mg Oral Compound 1, fasted, geometric mean) of the same compound?
A: 6.41 µg/mL

Q: What about the Cmax (human, plasma, po, 500 mg, Day 1, Cohort 4, 500 mg Oral Solution QD × 14 Days, fed, geometric mean) of the same compound?
A: 5.85 µg/mL

Q: What about the Cmax (human, plasma, po, 500 mg, Day 7, Cohort 4, 500 mg Oral Solution QD × 14 Days, fed, geometric mean) of the same compound?
A: 10.4 µg/mL

Q: And the Cmax (human, plasma, po, 500 mg, Day 14, Cohort 4, 500 mg Oral Solution QD × 14 Days, fed, geometric mean)?
A: 12.3 µg/mL

Q: And the Tmax (human, plasma, po, 500 mg, Tmax, 500 mg Oral Compound 1, fasted, median)?
A: 3 h

Q: And the Tmax (human, plasma, po, 500 mg, Tmax, Day 1, Cohort 4, 500 mg Oral Solution QD × 14 Days, fed, median)?
A: 2 h

Q: And the Tmax (human, plasma, po, 500 mg, Tmax, Day 7, Cohort 4, 500 mg Oral Solution QD × 14 Days, fed, median)?
A: 2 h

Q: What about the Tmax (human, plasma, po, 500 mg, Tmax, Day 14, Cohort 4, 500 mg Oral Solution QD × 14 Days, fed, median) of the same compound?
A: 1 h

Q: What about the half-life (human, plasma, po, 500 mg, T½, Day 14, Cohort 4, 500 mg Oral Solution QD × 14 Days, fed, geometric mean) of the same compound?
A: 55.4 h

Q: And the half-life (human, plasma, po, 500 mg, t½, 500 mg Oral Compound 1, fasted, geometric mean)?
A: 44.9 h

Q: What about the half-life (human, plasma, po, geometric mean t1/2, range across treatments, 4 oral treatments of Compound 1) of the same compound?
A: 44.9 to 64.7 h

Q: And the Tmax (human, plasma, po, median tmax, range across doses and study days, oral Compound 1 500 mg and 1000 mg QD × 14 days, fed)?
A: 2 to 3 h

Q: What about the Tmax (human, plasma, po, median tmax, range across doses, 4 single oral doses of Compound 1) of the same compound?
A: 2 to 3 h

Q: What about the “median accumulation, ratio of AUC0-24 on Day 14 to Day 1” value [1] of the same compound?
A: 2.95

Q: What about the “median accumulation, ratio of Cmax on Day 14 to Day 1” value [1] of the same compound?
A: 1.99

Q: And the “increase in geometric mean Cmax and AUC0-24 from 500 mg to 1000 mg” value (oral QD × 14 days, Days 1, 7, and 14)?
A: ~2 fold

Q: What about the “slope of log-log AUC(inf) vs. dose (power model parameter b)” value [2] of the same compound?
A: 1.04±0.046

Q: And the “slope of log-log Cmax vs. dose (power model parameter b)” value [2]?
A: 0.935±0.077
